Patent publication US20120040951A1, “HETEROARYL COMPOUNDS USEFUL AS RAF KINASE INHIBITORS” (priority 2008, published 2012)

Tests used:
[1] = test system: phospho-ERK in melanoma derived WM-266-4 cells; test: Mechanistic cellular assay for Raf kinase activity (phospho-ERK, Bio-Plex); assay type: cell-based; details: Homo sapiens, treated 1-2 hr at 37° C., serum free medium, read-out: pERK EC50
In short: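 WM-266-4 melanoma cells (wild-type/V600D BRaf) grown overnight in 10% FBS RPMI, then treated 1–2 h at 37 °C in serum-free RPMI with eight 3-fold dilutions of compound (from 5 mM DMSO stock, 1000× dilution). Lysate phospho-ERK1,2 quantified by Bio-Plex bead immunoassay.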

[2] = biological target: V599E Raf (Homo sapiens, UniProt P15056, V600E); test: Biochemical FRET assay, mutant Raf (phosphorylation of MEK); details: 0.125 nM V599E Raf, 100 nM biotin-MEK, 25 μM ATP, read-out: Raf (mut) inhibition
Chain of V599E Raf (P15056 whole entry V600E): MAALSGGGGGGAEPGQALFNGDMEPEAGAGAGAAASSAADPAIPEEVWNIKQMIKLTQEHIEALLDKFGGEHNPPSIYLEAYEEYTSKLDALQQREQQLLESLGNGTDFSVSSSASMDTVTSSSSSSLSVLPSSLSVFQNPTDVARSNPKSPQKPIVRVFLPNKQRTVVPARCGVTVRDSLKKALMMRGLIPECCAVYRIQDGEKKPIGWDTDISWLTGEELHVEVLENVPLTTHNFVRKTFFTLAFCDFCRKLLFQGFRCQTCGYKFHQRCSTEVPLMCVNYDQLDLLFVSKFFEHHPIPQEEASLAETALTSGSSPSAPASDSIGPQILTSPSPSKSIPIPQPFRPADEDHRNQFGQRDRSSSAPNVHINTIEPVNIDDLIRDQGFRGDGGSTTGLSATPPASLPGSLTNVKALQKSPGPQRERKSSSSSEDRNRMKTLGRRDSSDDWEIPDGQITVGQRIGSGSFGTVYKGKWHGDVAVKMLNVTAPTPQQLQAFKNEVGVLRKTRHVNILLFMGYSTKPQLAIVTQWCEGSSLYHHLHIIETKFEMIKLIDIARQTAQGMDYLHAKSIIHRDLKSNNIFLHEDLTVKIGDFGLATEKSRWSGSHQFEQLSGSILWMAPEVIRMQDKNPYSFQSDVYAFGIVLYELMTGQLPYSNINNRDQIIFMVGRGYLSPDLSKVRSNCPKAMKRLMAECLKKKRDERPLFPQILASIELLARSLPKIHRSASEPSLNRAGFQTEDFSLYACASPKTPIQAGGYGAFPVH
In short: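 V599E Raf (0.125 nM) preincubated 20 min with inhibitor and 100 nM biotin-MEK in HEPES pH 7.4 with Mg2+/Mn2+, then reacted with 25 μM ATP for 60 min at room temperature. EDTA-stopped; phospho-MEK1/2 (Ser217/221) detected by Eu/APC TR-FRET after 90 min.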

| Compound | EC50 [1] [nM] | IC50 [2] [nM] |
| --- | --- | --- |
| Cc1nc(C(C)NC(=O)c2cc3c(cn2)ncn3C)c(C)nc1Nc1ccc(C(F)(F)F)cc1 (centres unmarked) [Example 341] | 1000 to 10000 | 100 to 1000 |
| CC(NC(=O)c1ccc2ncn(C)c2c1)c1cnc(Nc2ccc(C(F)(F)F)cc2)s1 (centres unmarked) [Example 76] | 1000 to 10000 | ≤ 100 |
| Cc1nc(Nc2ccc(C(F)(F)F)cc2)sc1C(C)NC(=O)c1cc2c(cn1)ncn2C (centres unmarked) [Example 340] | 1000 to 10000 | ≤ 100 |
| C[C@@H](NC(=O)c1cnn(C)c1CN1CCCCC1)c1ncc(C(=O)Nc2cc(C(F)(F)F)c(Cl)cn2)s1 [Example 128] | 100 to 1000 | 100 to 1000 |
| C[C@@H](NC(=O)c1csc(-c2ccncc2)n1)c1ncc(C(=O)Nc2cc(C(F)(F)F)c(Cl)cn2)s1 [Example 97] | 1000 to 10000 | ≤ 100 |
| C[C@@H](NC(=O)c1cnn2ccccc12)c1cc(C(=O)Nc2nc3ccccc3[nH]2)on1 [Example 211] | 1000 to 10000 | ≤ 100 |
| COc1ccc(C(F)(F)F)cc1NC(=O)c1cc([C@@H](C)NC(=O)c2cnn3ccccc23)no1 [Example 214] | 100 to 1000 | 100 to 1000 |
| CC(NC(=O)c1cn2c(Cl)cnc2cn1)c1cnc(Nc2ccc(C(F)(F)F)cc2)s1 (centres unmarked) [Example 299] | 100 to 1000 | ≤ 100 |
| COCCOc1cc(C(F)(F)F)ccc1Nc1ncc(C(C)NC(=O)c2cc3c(cn2)ncn3C)s1 (centres unmarked) [Example 282] | 100 to 1000 | ≤ 100 |
| C[C@@H](NC(=O)c1cnc2n1CCN(C)C2)c1ncc(C(=O)Nc2cc(C(F)(F)F)c(Cl)cn2)s1 [Example 317] | 1000 to 10000 | 100 to 1000 |
| CC(NC(=O)c1ccc2ncsc2c1)c1cnc(Nc2ccc(C(F)(F)F)cc2)s1 (centres unmarked) [Example 74] | 1000 to 10000 | ≤ 100 |
| C[C@@H](NC(=O)c1cn[nH]c1-c1ccccc1)c1ncc(C(=O)Nc2cc(C(F)(F)F)c(Cl)cn2)s1 [Example 107] | 100 to 1000 | ≤ 100 |

Further lines, results first:

| EC50 [1] [nM] | IC50 [2] [nM] | Compound |
| --- | --- | --- |
| ≤ 100 | ≤ 100 | CC(NC(=O)c1cc2c(cn1)ncn2C1CCC1)c1cnc(Nc2ccc(C(F)(F)F)cc2)cn1 (centres unmarked) [Example 175] |
| 100 to 1000 | ≤ 100 | C[C@@H](NC(=O)c1cc2c(cn1)ncn2[C@@H]1CCNC1)c1cnc(Nc2ccc(C(F)(F)F)cc2)s1 [Example 26] |
| 100 to 1000 | ≤ 100 | Cc1ccc(NC(=O)c2cc([C@H](C)NC(=O)c3cnn4ccccc34)on2)cc1C(F)(F)F [Example 227] |
| 100 to 1000 | ≤ 100 | CCN1CC[C@H](n2cnc3cnc(C(=O)N[C@@H](C)c4cnc(Nc5ccc(C(F)(F)F)cc5)s4)cc32)C1 [Example 33] |
| 100 to 1000 | 100 to 1000 | Cc1ccc(NC(=O)c2cc([C@@H](C)NC(=O)c3cnn4cc(-c5ccncn5)cnc34)no2)cc1C(F)(F)F [Example 333] |
| ≤ 100 | ≤ 100 | CC(NC(=O)c1cc2c(cn1)nc(N)n2C)c1cnc(Nc2cnc(C(C)(C)C)nc2)s1 (centres unmarked) [Example 287] |
| 100 to 1000 | ≤ 100 | CC(NC(=O)c1cn2ccnc2cn1)c1cnc(Nc2ccc(C(F)(F)F)cc2)s1 (centres unmarked) [Example 296] |
| ≤ 100 | ≤ 100 | CCn1ncc(C(=O)N[C@H](C)c2ncc(C(=O)Nc3cc(C(F)(F)F)c(Cl)cn3)s2)c1C [Example 126] |
| 100 to 1000 | 100 to 1000 | Cc1cc2nc(NC(=O)c3cc([C@@H](C)NC(=O)c4cnn5ccccc45)no3)[nH]c2cc1C [Example 219] |
| ≤ 100 | 100 to 1000 | CC(NC(=O)c1cnn2ccccc12)c1ncc(C(=O)Nc2cc(C(F)(F)F)c(Cl)cn2)s1 (centres unmarked) [Example 223] |
| ≤ 100 | ≤ 100 | COc1nc(C(C)(C)C)ncc1Nc1ncc(C(C)NC(=O)c2cc3c(cn2)ncn3C)s1 (centres unmarked) [Example 270] |
| ≤ 100 | ≤ 100 | C[C@@H](NC(=O)c1cc2c(cn1)ncn2C)c1cnc(Nc2ccc(C(F)(F)F)cc2)cn1 (single isomer, unassigned) [Example 37] |
| ≤ 100 | ≤ 100 | CCn1cnc2cnc(C(=O)N[C@H](C)c3cnc(Nc4ccc(C(F)(F)F)cc4)cn3)cc21 [Example 174] |
